Experimental data: patent US20210087159A1, “TETRAHYDROCANNABINOLIC- CA[…] DERIVATIVES AND USES THEREOF” (AL&AM […]., priority 2018, published 2021)
Like-named read-outs stand apart in the source and are kept apart here.

Experiments:
Test in all cases: CellTiter-Glo cell viability assay, cancer cell cytotoxicity/anti-proliferation panel (Chempartner)
Type in all cases: cell-based
[1] = test system: A549, lung carcinoma; settings: for Inhibition: A549, 72 hours, compounds 10 μM starting, STS 2 μM starting, 10-pt, 3-fold dilution; for IC50: Homo sapiens, A549, 72 h, read-out: IC50 (absolute IC50)
Description: (§1) In this study, the biological activity of certain compounds of the present invention on cancer cell cytotoxicity/anti-proliferation panel was tested using the CellTiter-Glo® cell viability assay. The compounds were dissolved in DMSO to make 10 mM solution.
(§2) The cell lines tested were all selected from the Chempartner's cell collection and included: Caco-2 ATCC colon adenocarcinoma; TE-6 RIKEN esophagus, carcinoma; PC-3 ATCC prostate adenocarcinoma; T47D, breast ductal carcinoma; U251, brain human glioma; A549, lung carcinoma; OMP-2, multiple myeloma; SK-HEP-1, liver adenocarcinoma; PANC-1, pancreas ductal carcinoma; AsPC-1, pancreas, ductal carcinoma; and U-87 MG, brain glioblastoma.
(§3) For the assays described herein, absolute inhibition of cells growth (%) and absolute IC50 (Abs IC50; […]) were used to derive a value that can be used to compare results within and across runs in the same assay, as well as between different assays.
(§4) • a. Prepare complete medium: Add FBS and appropriate additives according to the information sheet provided by the vendor. Mix gently. • b. Check the cell name and complete medium and passage number marked on the flask. For adherent cell lines, refer to c to k. For suspension cell lines, refer to g to k. • c. Remove and discard culture medium using a vacuum pump. • d. Briefly rinse the cell layer with 0.25% (w/v) trypsin-0.038% (w/v) EDTA solution to remove all traces of serum that contains trypsin inhibitor. • e. Add 3.0 ml of trypsin-EDTA solution to flask and observe cells under an inverted microscope until cell layer is dispersed. • f. Add 8.0 ml of complete growth medium and aspirate cells by gently pipetting. • g. Transfer the cell suspension to a centrifuge tube and centrifuge at 800-1000 rpm for 3-5 minutes. • h. Discard the supernatant using a vacuum pump. • i. Add appropriate volume of complete medium. Suspend the cell pellet by gently pipetting. • j. Count the cell numbers with Vi-cell XR and adjust cells to appropriate density. • k. Add 100 μL of cell suspension to 96-well opaque-walled clear bottom plates according to the planned plate layout and place the plates in the CO2 incubator overnight. • l. Plate layout:
(§5) • Plate preparation of testing articles. 10 mM stock solution of each one of the compounds (provided as powder) was prepared in DMSO. […] 0.5 μL of each of the diluted compounds was transferred to the wells containing 100 μL of the culture medium. The total dilution was 200 fold. Cells were incubated with the compounds for 72 hours at 5% CO2, 37° C.
(§6) • Thaw the CellTiter-Glo buffer and equilibrate to room temperature prior to use. • Equilibrate the lyophilized CellTiter-Glo substrate to room temperature prior to use. • Transfer the appropriate volume of CellTiter-Glo buffer into the amber bottle containing CellTiter-Glo substrate to reconstitute the lyophilized enzyme/substrate mixture. This forms the CellTiter-Glo reagent. • Mix by gently vortexing, swirling or by inverting the contents to obtain a homogeneous solution. The CellTiter-Glo substrate should go into solution easily in less than one minute.
(§7) • Observe the cell morphology under an inverted microscope after corresponding treatment. • Equilibrate the plate and its contents to room temperature for approximately 30 minutes. • Add 100 μL of CellTiter-Glo reagent to the assay plate by Multidrop Combi instrument. • Mix contents for 10 minutes on an orbital shaker to induce cell lysis. • Allow the plate to incubate at room temperature for 10 minutes to stabilize luminescent signal. • Paste the clear bottom with white back seal and record luminescence with Enspire. The settings should be: Luminescence, measurement time 0.1 ms.
(§8) Inhibition (%) and absolute IC50 (μM) of each compound was calculated with XLFit curve fitting software that is compatible to Activity Base.

[2] = test system: AsPC-1, pancreas, ductal carcinoma; settings: for Inhibition: AsPC-1, 72 hours, compounds 10 μM starting, STS 2 μM starting, 10-pt, 3-fold dilution; for IC50: Homo sapiens, ASPC1, 72 h, read-out: IC50 (absolute IC50)
Description: as §1, §2, §3, §4, §5, §6, §7, §8

[3] = test system: OMP-2, multiple myeloma; settings: for IC50: 72 h, read-out: IC50 (absolute IC50); for Inhibition: OMP-2, 72 hours, compounds 10 μM starting, STS 2 μM starting, 10-pt, 3-fold dilution
Description: as §1, §2, §3, §4, §5, §6, §7, §8

[4] = test system: PANC-1, pancreas ductal carcinoma; settings: for IC50: Homo sapiens, PANC-1, 72 h, read-out: IC50 (absolute IC50); for Inhibition: PANC-1, 72 hours, compounds 10 μM starting, STS 2 μM starting, 10-pt, 3-fold dilution
Description: as §1, §2, §3, §4, §5, §6, §7, §8

[5] = test system: SK-HEP-1, liver adenocarcinoma; settings: for IC50: Homo sapiens, SK-HEP1, 72 h, read-out: IC50 (absolute IC50); for Inhibition: SK-HEP-1, 72 hours, compounds 10 μM starting, STS 2 μM starting, 10-pt, 3-fold dilution
Description: as §1, §2, §3, §4, §5, §6, §7, §8

[6] = test system: T47D, breast ductal carcinoma; settings: for IC50: Homo sapiens; for Inhibition: compounds 10 μM starting, STS 2 μM starting
Description: as §1, §2, §3, §4, §5, §6, §7, §8

[7] = test system: U-87 MG, brain glioblastoma; settings: for Inhibition: 72 hours, compounds 10 μM starting, STS 2 μM starting, 10-pt, 3-fold dilution; for IC50: Homo sapiens, 72 h, read-out: IC50 (absolute IC50)
Description: as §1, §2, §3, §4, §5, §6, §7, §8

[8] = test system: Caco-2 ATCC colon adenocarcinoma
Description: as §1, §2, §3, §4, §5, §6, §7, §8

[9] = test system: PC-3 ATCC prostate adenocarcinoma
Description: as §1, §2, §3, §4, §5, §6, §7, §8

[10] = test system: TE-6 RIKEN esophagus, carcinoma
Description: as §1, §2, §3, §4, §5, §6, §7, §8

[11] = T47D, 72 h, read-out: IC50 (absolute IC50)
[12] = T47D, 72 hours, 10-pt, 3-fold dilution
[13] = 72 h, read-out: IC50 (absolute IC50)

| Compound | Inhibition [1] [%] | IC50 [1] [µM] | Inhibition [2] [%] | IC50 [2] [µM] | IC50 [3] [µM] | Inhibition [3] [%] | IC50 [4] [µM] | Inhibition [4] [%] | IC50 [5] [µM] | Inhibition [5] [%] | IC50 [6, 11] [µM] | Inhibition [6, 12] [%] | Inhibition [7] [%] | IC50 [7] [µM] | also measured |
| --- | --- | --- | --- | --- | --- | --- | --- | --- | --- | --- | --- | --- | --- | --- | --- |
| CCCCCc1cc2c(c(O)c1C(=O)NCCN(C)C)[C@@H]1C=C(C)CC[C@H]1C(C)(C)O2 [Ia6, (6aR,0aR)—N-(2-(dimethylamino)ethyl)-1-hydroxy-6,6,9-trimethyl-3-pentyl-6a,7,8,10a-tetrahydro-6H-benzo[c]chromene-2-carboxamide] | 66.67 | 7.34 | 54.46 | 9.1 | > 10 | 47.73 | 6.02 | 90.10 | > 10 | 49.38 | 6.09 | 84.19 | 13.79 | > 10 |  |
| CCCCCc1cc2c(c(O)c1C(=O)NCCCN1CCOCC1)[C@@H]1C=C(C)CC[C@H]1C(C)(C)O2 [Ia9, (6aR,0aR)-1-hydroxy-6,6,9-trimethyl-N-(3-morpholinopropyl)-3-pentyl-6a,7,8,10a-tetrahydro-6H-benzo[c]chromene-2-carboxamide] | 77.08 | 5.59 | 64.62 | 7.38 | 6.72 | 76.40 | 5.46 | 92.19 | 5.41 | 78.20 | 5.52 | 97.90 | 19.84 | > 10 | Inhibition ([8]; Caco-2, 72 hours, compounds 10 μM starting, STS 2 μM starting, 10-pt, 3-fold dilution): 60.81%; IC50 ([8]; Homo sapiens, Caco-2, 72 h, read-out: IC50 (absolute IC50)): 8.87 µM; IC50 [9, 13]: 9.94 µM; Inhibition ([9]; PC-3, 72 hours, compounds 10 μM starting, STS 2 μM starting, 10-pt, 3-fold dilution): 61.13%; IC50 [10, 13]: 7.36 µM; Inhibition ([10]; TE-6, 72 hours, compounds 10 μM starting, STS 2 μM starting, 10-pt, 3-fold dilution): 67.27% |
| C=C(C)[C@@H]1CCC(C)=C[C@H]1c1c(O)cc(CCCCC)c(C(=O)NCCCN2CCOCC2)c1O [Ia28, (1′R,2′R)-2,6-dihydroxy-5′-methyl-N-(3-morpholinopropyl)-4-pentyl-2′-(prop-1-en-2-yl)-1′,2′,3′,4′-tetrahydro-[1,1′-biphenyl]-3-carboxamide] |  |  |  |  |  |  |  |  |  |  |  |  |  |  | IC50 ([6]; Table 5, T47D cells, 72 hours, read-out: AbsIC50): > 10 µM; Inhibition % ([6]; Table 5, T47D cells, 72 hours, 10 μM starting, 10-pt, 3-fold dilution): 14.85% |
| CCCCCc1cc2c(c(O)c1C(=O)O)[C@@H]1C=C(C)CC[C@H]1C(C)(C)O2 [THCA, tetrahydrocannabinolic acid, reference compound] | 9.30 | > 10 |  |  | > 10 | 5.94 | > 10 | 15.20 | > 10 | 16.52 | > 10 | 18.20 | 10.52 | > 10 |  |
